Assays:
Assay in all cases: relative viability (nuclei count vs DMSO), 5 days (fraction); higher = more cells survive
[1] = test system: 201T
Procedure, shortened: (§1)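 Lung cancer cell lines were seeded in 1536-well plates and dosed by pin tool the next day, with either a single drug or a fixed anchor-drug dose combined with five library-drug doses (not always all listed) spaced in √10 steps. Five days later, one step fixed the cells and stained their nuclei (final 0.05% Triton X-100, 1% formaldehyde, 1 ug/ml Hoechst), and nuclei were counted on 4× images. Relative viability is the nuclei count in treated wells divided by the count in vehicle wells, and each value is the median of duplicate plates.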

[2] = test system: BEN
Procedure, shortened: as §1

[3] = test system: EPLC-272H
Procedure, shortened: as §1

[4] = test system: HCC-15
Procedure, shortened: as §1

[5] = test system: HCC-78
Procedure, shortened: as §1

[6] = test system: LCLC-97TM1
Procedure, shortened: as §1

[7] = test system: LU99A
Procedure, shortened: as §1

[8] = test system: NCI-H1355
Procedure, shortened: as §1

[9] = test system: NCI-H1395
Procedure, shortened: as §1

[10] = test system: NCI-H2009
Procedure, shortened: as §1

[11] = test system: NCI-H2085
Procedure, shortened: as §1

[12] = test system: NCI-H2126
Procedure, shortened: as §1

[13] = test system: NCI-H2228
Procedure, shortened: as §1

[14] = test system: NCI-H23
Procedure, shortened: as §1

[15] = test system: NCI-H2405
Procedure, shortened: as §1

[16] = test system: NCI-H322M
Procedure, shortened: as §1

[17] = test system: NCI-H460
Procedure, shortened: as §1

[18] = test system: NCI-H647
Procedure, shortened: as §1

[19] = test system: NCI-H838
Procedure, shortened: as §1

[20] = test system: PC-14
Procedure, shortened: as §1

`CCNC(=O)c1noc(-c2cc(C(C)C)c(O)cc2O)c1-c1ccc(CN2CCOCC2)cc1` [Luminespib] + CC1(C)CCC(c2ccc(Cl)cc2)=C(CN2CCN(c3ccc(C(=O)NS(=O)(=O)c4ccc(N[C@H](CCN5CCOCC5)CSc5ccccc5)c(S(=O)(=O)C(F)(F)F)c4)cc3)CC2)C1 [Navitoclax] (partner 0.5 µM) was tested, and the relative viability ([1]; first compound 0.002 µM) was 1.17, the relative viability ([1]; first compound 0.006325 µM) was 1.18 and the relative viability ([1]; first compound 0.02 µM) was 1.13. For the same compound, the relative viability ([1]; first compound 0.06325 µM) was 1.15, the relative viability ([1]; first compound 0.2 µM) was 1.18 and the relative viability ([2]; first compound 0.002 µM) was 0.0714. It also gave a relative viability ([2]; first compound 0.006325 µM) of 0.0602, a relative viability ([2]; first compound 0.02 µM) of 0.0673 and a relative viability ([2]; first compound 0.06325 µM) of 0.0655. It also gave a relative viability ([2]; first compound 0.2 µM) of 0.0846, a relative viability ([3]; first compound 0.006325 µM) of 0.831 and a relative viability ([3]; first compound 0.02 µM) of 0.782. For the same compound, the relative viability ([3]; first compound 0.06325 µM) was 1.11, the relative viability ([3]; first compound 0.2 µM) was 1.28 and the relative viability ([4]; first compound 0.002 µM) was 0.647. It also gave a relative viability ([4]; first compound 0.006325 µM) of 0.708, a relative viability ([4]; first compound 0.02 µM) of 0.755 and a relative viability ([4]; first compound 0.06325 µM) of 0.44. The relative viability ([4]; first compound 0.2 µM) was 0.419, the relative viability ([5]; first compound 0.002 µM) was 0.874 and the relative viability ([5]; first compound 0.06325 µM) was 1.12. It also gave a relative viability ([5]; first compound 0.2 µM) of 0.21, a relative viability ([6]; first compound 0.002 µM) of 0.3 and a relative viability ([6]; first compound 0.006325 µM) of 0.538. The relative viability ([6]; first compound 0.02 µM) was 0.31, the relative viability ([6]; first compound 0.06325 µM) was 0.411 and the relative viability ([6]; first compound 0.2 µM) was 0.338. The relative viability ([7]; first compound 0.002 µM) was 0.878, the relative viability ([7]; first compound 0.006325 µM) was 0.815 and the relative viability ([7]; first compound 0.02 µM) was 0.496. It also gave a relative viability ([7]; first compound 0.06325 µM) of 0.253, a relative viability ([7]; first compound 0.2 µM) of 0.119 and a relative viability ([8]; first compound 0.002 µM) of 0.983. It also gave a relative viability ([8]; first compound 0.006325 µM) of 0.896, a relative viability ([8]; first compound 0.02 µM) of 0.473 and a relative viability ([8]; first compound 0.06325 µM) of 0.987. The relative viability ([8]; first compound 0.2 µM) was 0.968, the relative viability ([9]; first compound 0.002 µM) was 1.42 and the relative viability ([9]; first compound 0.006325 µM) was 1.16. For the same compound, the relative viability ([9]; first compound 0.02 µM) was 0.949, the relative viability ([9]; first compound 0.06325 µM) was 0.407 and the relative viability ([9]; first compound 0.2 µM) was 0.338. For the same compound, the relative viability ([10]; first compound 0.002 µM) was 1.17, the relative viability ([10]; first compound 0.006325 µM) was 1.08 and the relative viability ([10]; first compound 0.02 µM) was 1.21. For the same compound, the relative viability ([10]; first compound 0.06325 µM) was 0.72, the relative viability ([10]; first compound 0.2 µM) was 0.0895 and the relative viability ([11]; first compound 0.002 µM) was 1.15. The relative viability ([11]; first compound 0.006325 µM) was 1.13, the relative viability ([11]; first compound 0.02 µM) was 1.14 and the relative viability ([11]; first compound 0.06325 µM) was 0.677. It also gave a relative viability ([11]; first compound 0.2 µM) of 0.503, a relative viability ([12]; first compound 0.002 µM) of 0.852 and a relative viability ([12]; first compound 0.006325 µM) of 0.777. For the same compound, the relative viability ([12]; first compound 0.02 µM) was 0.506, the relative viability ([12]; first compound 0.06325 µM) was 0.864 and the relative viability ([12]; first compound 0.2 µM) was 0.874. It also gave a relative viability ([13]; first compound 0.002 µM) of 0.836, a relative viability ([13]; first compound 0.006325 µM) of 0.637 and a relative viability ([13]; first compound 0.02 µM) of 0.614. The relative viability ([13]; first compound 0.06325 µM) was 0.11, the relative viability ([13]; first compound 0.2 µM) was 0.144 and the relative viability ([14]; first compound 0.002 µM) was 1.08. The relative viability ([14]; first compound 0.006325 µM) was 0.793, the relative viability ([14]; first compound 0.02 µM) was 0.625 and the relative viability ([14]; first compound 0.06325 µM) was 0.142. The relative viability ([14]; first compound 0.2 µM) was 0.13, the relative viability ([15]; first compound 0.002 µM) was 0.925 and the relative viability ([15]; first compound 0.006325 µM) was 0.583. The relative viability ([15]; first compound 0.02 µM) was 0.704, the relative viability ([15]; first compound 0.06325 µM) was 0.188 and the relative viability ([15]; first compound 0.2 µM) was 0.143. For the same compound, the relative viability ([16]; first compound 0.002 µM) was 1.14, the relative viability ([16]; first compound 0.006325 µM) was 1.09 and the relative viability ([16]; first compound 0.02 µM) was 1.02. It also gave a relative viability ([16]; first compound 0.06325 µM) of 1.16, a relative viability ([16]; first compound 0.2 µM) of 1.28 and a relative viability ([17]; first compound 0.002 µM) of 1.23. The relative viability ([17]; first compound 0.006325 µM) was 1.01, the relative viability ([17]; first compound 0.02 µM) was 0.0537 and the relative viability ([17]; first compound 0.06325 µM) was 0.0176. For the same compound, the relative viability ([17]; first compound 0.2 µM) was 0.0134, the relative viability ([18]; first compound 0.002 µM) was 1.23 and the relative viability ([18]; first compound 0.006325 µM) was 1.06. It also gave a relative viability ([18]; first compound 0.02 µM) of 1.18, a relative viability ([18]; first compound 0.06325 µM) of 0.0943 and a relative viability ([18]; first compound 0.2 µM) of 0.0973. It also gave a relative viability ([19]; first compound 0.002 µM) of 1.3, a relative viability ([19]; first compound 0.006325 µM) of 1.12 and a relative viability ([19]; first compound 0.02 µM) of 1.07. The relative viability ([19]; first compound 0.06325 µM) was 0.18, the relative viability ([19]; first compound 0.2 µM) was 0.193 and the relative viability ([20]; first compound 0.002 µM) was 0.996. The relative viability ([20]; first compound 0.006325 µM) was 0.945, the relative viability ([20]; first compound 0.02 µM) was 1.17 and the relative viability ([20]; first compound 0.06325 µM) was 0.0977. The relative viability ([20]; first compound 0.2 µM) was 0.128.

Reference: the supplement of paper PMC10307832
